Measurements as given in ChEMBL document CHEMBL1201862, “PubChem BioAssay data set” (2004).
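Following 48 hours of exposure in 96-well plates, responses at five concentrations were used to interpolate endpoints linearly. GI50 is the concentration that inhibits growth by half.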 Activity calls are given as the source filed them. Cut-off read from the data, not from the text of the source: active = GI50 up to about 1.1 µM and inactive = higher.

Legend:
Experiment in all cases: growth of human tumour cells (NCI), 48 h
[1] = system: RPMI-8226
[2] = system: HCC 2998
[3] = system: ACHN
[4] = system: COLO 205
[5] = system: Malme-3M
[6] = system: HCT-116
[7] = system: HT-29
[8] = system: NCI-H226
[9] = system: SNB-19
[10] = system: LXFL 529
[11] = system: DLD-1
[12] = system: UACC-62
[13] = system: HOP-92
[14] = system: OVCAR-5
[15] = system: UO-31
[16] = system: OVCAR-8
[17] = system: A549
[18] = system: SNB-78
[19] = system: NCI-H23
[20] = system: HCT-15
[21] = system: M19-MEL
[22] = system: SNB-75
[23] = system: KM12
[24] = system: IGROV-1
[25] = system: KM-20L2
[26] = system: EKVX
[27] = system: SW-620
[28] = system: M14
[29] = system: A498
[30] = system: SN12C
[31] = system: HL-60
[32] = system: DMS-114
[33] = system: K562
[34] = system: UACC-257
[35] = system: U-251
[36] = system: OVCAR-3
[37] = system: HOP-62
[38] = system: 786-0
[39] = system: NCI-H460
[40] = system: SK-OV-3
[41] = system: LOX IMVI
[42] = system: MOLT-4
[43] = system: CCRF-CEM
[44] = system: DMS-273
[45] = system: HOP-18
[46] = system: SK-MEL-2
[47] = system: RXF 393
[48] = system: SF-268
[49] = system: TK-10
[50] = system: SK-MEL-28

COc1cccc(C2CC(C)=Nc3c(ccc4c3C(=O)c3ccccc3C4=O)N2)c1O (stereo not drawn)
GI50 [1]: 79.3 µM (inactive)
GI50 [2]: > 100 µM (inactive)
GI50 [3]: 9.46 µM (inactive)
GI50 [4]: > 100 µM (inactive)
GI50 [5]: > 100 µM (inactive)
GI50 [6]: > 100 µM (inactive)
GI50 [7]: > 100 µM (inactive)
GI50 [8]: 33.6 µM (inactive)
GI50 [9]: > 100 µM (inactive)
GI50 [10]: > 100 µM (inactive)
GI50 [11]: 15 µM (inactive)
GI50 [12]: > 100 µM (inactive)
GI50 [13]: > 100 µM (inactive)
GI50 [14]: > 100 µM (inactive)
GI50 [15]: 33 µM (inactive)
GI50 [16]: 4.94 µM (inactive)
GI50 [17]: > 100 µM (inactive)
GI50 [18]: > 100 µM (inactive)
GI50 [19]: > 100 µM (inactive)
GI50 [20]: 26.9 µM
GI50 [21]: 9.62 µM (inactive)
GI50 [22]: > 100 µM (inactive)
GI50 [23]: 3.59 µM (inactive)
GI50 [24]: > 100 µM (inactive)
GI50 [25]: > 100 µM (inactive)
GI50 [26]: > 100 µM (inactive)
GI50 [27]: 20.5 µM (inactive)
GI50 [28]: 9.2 µM (inactive)
GI50 [29]: > 100 µM (inactive)
GI50 [30]: > 100 µM (inactive)
GI50 [31]: 5.41 µM (inactive)
GI50 [32]: > 100 µM (inactive)
GI50 [33]: > 100 µM (inactive)
GI50 [34]: 3 µM (inactive)
GI50 [35]: 3.78 µM (inactive)
GI50 [36]: 9.71 µM (inactive)
GI50 [37]: 3.24 µM (inactive)
GI50 [38]: > 100 µM (inactive)
GI50 [39]: 7.52 µM (inactive)

CN(O)C(=O)SCC(NC(=O)CCC(N)C(=O)O)C(=O)NCC(=O)O (stereo not drawn)
GI50 [1]: 964 µM (inactive)
GI50 [40]: 294 µM (inactive)
GI50 [7]: 1.31 µM (inactive)
GI50 [41]: 1.46 µM (inactive)
GI50 [13]: 294 µM (inactive)
GI50 [42]: 1100 µM (inactive)
GI50 [43]: 1.67 µM (inactive)
GI50 [44]: 1.52 µM (inactive)
GI50 [45]: 619 µM (inactive)
GI50 [20]: 24.3 µM
GI50 [22]: 618 µM (inactive)
GI50 [23]: 1050 µM (inactive)
GI50 [27]: 1760 µM (inactive)
GI50 [46]: 446 µM (inactive)
GI50 [31]: 318 µM (inactive)
GI50 [47]: 518 µM (inactive)
GI50 [33]: 305 µM (inactive)
GI50 [35]: 41.7 µM (inactive)
GI50 [37]: 173 µM (inactive)
GI50 [48]: 1630 µM (inactive)
GI50 [39]: 783 µM (inactive)

COc1cc(C2c3cc4c(cc3[C@@H](NCCCN3CCCC3=O)C3COC(=O)[C@H]23)OCO4)cc(OC)c1O (stereo partly drawn)
GI50 [2]: 19.1 µM (inactive)
GI50 [40]: 4.29 µM (inactive)
GI50 [3]: 3.41 µM (inactive)
GI50 [4]: 7.76 µM (inactive)
GI50 [49]: 30.3 µM (inactive)
GI50 [45]: 28.7 µM (inactive)
GI50 [50]: 15.4 µM (inactive)
GI50 [22]: 1.67 µM (inactive)
GI50 [23]: 21 µM (inactive)
GI50 [26]: > 100 µM (inactive)
GI50 [46]: 36.2 µM (inactive)
GI50 [47]: 6.84 µM (inactive)
GI50 [36]: 45.9 µM (inactive)
